Source: patent US10668032B2 (SyneuRx International (Taiwan) Corp., priority 2016, dated 2020)

How the values were obtained:
[1] = test system: B6SJL-Tg(SOD1*G93A)1Gur/J mice; test: SOD1*G93A transgenic ALS mice: behavioral tasks, body weight, survival; type: in vivo, mouse
From the text: Disease onset of B6SJL-Tg(SOD1*G93A)1Gur/J mice occurred at around 80-90 days of age, while progressive clinical weakness followed by paralysis and death occurred by 135-140 days.
In cohort 2, the male transgenic and wild-type littermates were randomly divided into 3 groups as cohort 1: vehicle (n=5), vehicle-ALS (n=6), and drug-ALS (n=11). Disease onset occurred at around 110-120 days of age, while progressive clinical weakness followed by paralysis and death occurred at around 150-155 days.
In cohort 1, drug regimen was initiated 8 weeks after birth and continued until the end of study. […] The vehicle groups received injections of the same volume of saline.
The drug regimen for cohort 2 was the same as that for cohort 1 except the dosing was started at 10 weeks of age.
Open field is an animal behavioral task that can monitor the overall spontaneous locomotor activity. Each animal was placed in an empty test arena (60 cm×60 cm plastic boxes) for 1 hour, and its activity was assessed by VersaMax Animal Activity Monitoring System (AccuScan Instruments, Inc. Columbus Ohio, USA). Total traveling distance, number of rearing movements and rearing time were analyzed. Performance of open field was measured 1-2 times per week.
In the open field task, each animal was placed in an empty test arena (43.2 cm×21.6 cm plastic boxes) for 1 hour, and its activity was assessed by Photobeam Activity System (San Diego Instruments, USA). Total traveling and rearing activities (beam break times) were analyzed. Performance of open field was measured once per week.
Rorarod task, which requires animals to balance and walk on a rotating cylinder, is a widely used test to measure coordinated motor skills. The mice were placed on a 5-channel automatic revolving rod apparatus (PanLab/Harvard Apparatus). […] After the training sessions, motor coordination was evaluated at 16 rpm for a maximum of 5 min. […] Performance of rotarod task was measured once per week, and the longest retention time for each animal was recorded.
A metal wire mesh (0.2 cm diameter, 1 cm×1 cm wide grid) was fixed horizontally 30 cm above the table. […] The latency to fall was recorded when the animal fell, and a maximum time of 180 s was assigned for analysis. There were two sessions for each individual with a 30-min interval, and the longer time was recorded. Performance of hanging test was measured once per week.
For each animal, body weight was measured weekly starting at 10 weeks of age. […]
Date and cause of death were recorded for each mouse. Animals were closely monitored and euthanized if moribund, which was defined as the inability of mice to right themselves 30 seconds after being placed on a side, in accordance with the criteria for severe morbidity. The moribund mice were recorded as “dead”, and euthanized using carbon dioxide.

[2] = Plasma pharmacokinetics of lithium after oral gavage (ICP-MS)
Experimental: Male Sprague-Dawley rats weighed between 240-260 g were randomly assigned to two groups. […] These two regimens would provide the same molarity of lithium and benzoate. The chemicals were dissolved in PBS, and then administrated by oral gavage. All rats were fasted overnight with free access to water before experiments. After single dose administration of drugs, the blood samples were then collected at the time point 0, 5, 15, 30, 60, 90, 120, 240, 360, 720, and 1440 min.
Blood samples were collected in tubes coated with sodium heparin from jugular vein catheterized rats. Then, the blood samples were kept on ice and centrifuged at 2,500×g for 15 min at 4° C. The supernatant was collected and then kept frozen at −80° C. until further processing.

[3] = test system: primary cortical neuronal culture; test: Detection of cellular reactive oxygen species (CellROX) after 3-NP in primary cortical culture; type: cell-based, rat
Experimental: Reactive oxygen species (ROS) are detected on primary cortical neuronal culture by CellROX Oxidative Reagents (catalog number 10444, Life Technologies Corp. USA). […] The cells were then exposed to 2.5 mM 3-NP for 24 hours. Subsequently, […] CellROX Reagent was added, and then incubated for […]. CellROX Green Reagent is a DNA dye, and upon oxidation, it binds to DNA; thus, its signal is localized in the nucleus and mitochondria. ROS were quantified by fluorescence intensity. The samples were observed under a laser scanning confocal microscope Zeiss LSM700 (Zeiss, Germany) equipped with filter sets to detect fluorescent signal.

primary cortical cells = test: Oxygen-glucose deprivation (OGD) of primary cortical culture, MTT assay; type: cell-based, rat
From the text: The oxygen-glucose deprivation (OGD) is a common and well-validated cell model used for brain injuries like stroke-related studies. […] To induce the OGD model, the Neurobasal medium supplemented with B27 (GIBCO/Life Technologies of Thermo Fisher Scientific Corporation) was removed from the cultures, and then rinsed with Neurobasal-A Medium (no D-glucose and sodium pyruvate [GIBCO/Life Technologies of Thermo Fisher Scientific Corporation]). The cultured cells were maintained in a humidified incubator at 37° C. with 5% CO2 for 1 h to consume the resting glucose and pyruvate. The cultures were then subjected to an anaerobic environment of 95% N2-5% CO2 for 4 hours. Oxygen concentration was monitored by an oxygen analyzer (Proox-110, Demott St, Lacona, N.Y., USA), as maintained at approximately 1.0% throughout the experiment.

[4] = 256 mg/kg/day i.p., vs ALS mice treated with vehicle

SMILES: O=C([O-])c1ccccc1.[Li+] [lithium benzoate]
- proportion of mice surviving over time [1, 4]: improved
- weight change [1, 4]: improved
- hind limb functions (number of rearing movements, rearing time; open field) ([1]; cohort 1, female, 256 mg/kg/day i.p. from 8 weeks, about 90 to about 130 days of age, vs saline ALS mice): significantly improved
- motor functions (hanging test, rotarod test, rearing activity, traveling activity) ([1]; cohort 2, male, 256 mg/kg/day i.p. from 10 weeks, about 133 to about 147 days of age, vs saline ALS mice): improved
- Tmax of lithium ([2]; rat, single oral gavage, NaBen 287.9 mg/kg + Li2CO3 74.2 mg/kg or LiBen 255.3 mg/kg): 2.208 h
- Cmax ([2]; read-out: Cmax of lithium, rat, single oral gavage, NaBen 287.9 mg/kg + Li2CO3 74.2 mg/kg or LiBen 255.3 mg/kg): 1720 µM
- ROS reduction effect compared with sodium benzoate and lithium chloride ([3]; 0.5 mM each): much more significant
- ROS production induced by 3-NP ([3]; 0.5 mM, incubated 24 hours before 3-NP): back to the basal level
- ROS production induced by 3-NP ([3]; lithium benzoate 0.5, 1 or 3 mM 24 h, then 2.5 mM 3-NP 24 h): significantly reduced
- cell survival under oxygen-glucose deprivation (primary cortical cells; overall treatment 53 hours (pre-treatment 24 h, habituation 1 h, OGD 4 h, reperfusion 24 h), 0.3, 1, 3, 5 mM): significantly protected
- cell survival under oxygen-glucose deprivation (primary cortical cells; post-treatment for 48 hours reperfusion): cell protection effect at all dose levels
